Experimental data reported in paper PMC7139504, “New Arylethanolimidazole Derivatives as HO-1 Inhibitors with Cytotoxicity against MCF-7 Breast Cancer Cells” (International Journal of Molecular Sciences, 2020).
Values joined by “and” are separate entries in the source; they are usually repeats but may differ in a detail not shown here. Identical values can stand only once. Like-named read-outs stand apart in the source and are kept apart here.

Tests used:
[1] = biological target: T1, HO-1 (Rattus norvegicus, UniProt P06762); conditions: reference compounds; data taken from ref 32; read-out: IC50 (μM) ± SD HO-1; cited from earlier work
T1 construct: selected in order to use the most native (i.e., closest to in vivo) forms of HO-1 and HO-2; from tissue; host or cells: spleen microsomal fraction of male Sprague-Dawley rats
T1 sequence (P06762 1-289): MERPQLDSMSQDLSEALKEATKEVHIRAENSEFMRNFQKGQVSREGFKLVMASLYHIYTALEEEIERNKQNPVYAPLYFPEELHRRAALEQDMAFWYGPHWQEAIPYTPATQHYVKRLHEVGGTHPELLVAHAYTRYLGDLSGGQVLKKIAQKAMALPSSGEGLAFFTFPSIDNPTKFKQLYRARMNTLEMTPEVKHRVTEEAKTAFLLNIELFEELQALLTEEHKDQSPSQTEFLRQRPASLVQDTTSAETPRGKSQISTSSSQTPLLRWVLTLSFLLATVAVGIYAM

[2] = biological target: T2, HO-2 (Rattus norvegicus, UniProt P23711); conditions: reference compounds; data taken from ref 32; read-out: IC50 (μM) ± SD HO-2; cited from earlier work
T2 construct: selected in order to use the most native (i.e., closest to in vivo) forms of HO-1 and HO-2; from tissue; host or cells: brain microsomal fraction of male Sprague-Dawley rats
T2 sequence (P23711 1-315): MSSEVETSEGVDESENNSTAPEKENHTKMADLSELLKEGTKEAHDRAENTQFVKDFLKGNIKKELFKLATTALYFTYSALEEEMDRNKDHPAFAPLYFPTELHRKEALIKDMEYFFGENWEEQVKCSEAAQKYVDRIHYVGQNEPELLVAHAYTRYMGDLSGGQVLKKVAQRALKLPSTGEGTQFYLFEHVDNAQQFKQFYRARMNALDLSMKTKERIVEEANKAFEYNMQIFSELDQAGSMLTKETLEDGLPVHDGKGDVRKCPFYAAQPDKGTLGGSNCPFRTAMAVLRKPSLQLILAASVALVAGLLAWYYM

[3] = biological target: T1, HO-1; assay: HO-1 inhibition, bilirubin formation in rat spleen microsomal fraction; type: biochemical
Procedure: (§1) HO-1 and HO-2 were obtained from the microsomal fractions of rat spleen and rat brain, respectively. Enzymatic activity of both isoforms was determined by measuring the bilirubin formation using the difference in absorbance at 464–530 nm, as described in the experimental section. Compounds A–C, and tin protoporphyrin (SnPP) were used as reference substances. Inhibition of enzymes activity is expressed as IC50 (μM), and results are resumed in Table 1.
The dominance of HO-1 protein in the rat spleen and of HO-2 in the rat brain has been well documented; thus, the microsomal fraction, prepared by differential centrifugation, from rat spleen and brain have been used to obtain HO-1 and HO-2. These particular microsomal preparations were selected in order to use the most native (i.e., closest to in vivo) forms of HO-1 and HO-2. Spleen and brain microsomal fractions, from Sprague–Dawley rats, were prepared following a published procedure. All experiments complied with current Italian law and met the guidelines of the Institutional Animal Care and Use Committee of MINISTRY OF HEALTH (Directorate General for Animal Health and Veterinary Medicines, Italy). Male Sprague–Dawley albino rats (150 g body weight and age 45 d) were used. Rats had free access to water, and they were maintained at room temperature with a natural photoperiod (12 h:12 h light–dark cycle). For measuring HO-1 and HO-2 activities, each rat was sacrificed and their spleen and brain were excised and weighed. A homogenate (15%, w/v) of spleens and brains pooled from four rats was prepared in ice-cold HO-homogenizing buffer (50 mM Tris buffer, pH 7.4, containing 0.25 M sucrose) using a Potter–Elvehjem homogenizing system with a Teflon pestle. The microsomal fraction of rat spleen and brain homogenate was obtained by centrifugation at 10,000× g for 20 min at 4 °C, followed by centrifugation of the supernatant at 100,000× g for 60 min at 4 °C. The 100,000× g pellet (microsomes) was resuspended in 100 mM potassium phosphate buffer, pH 7.8, containing 2 mM MgCl2 with a Potter–Elvehjem homogenizing system. Equal aliquots of the rat spleen and brain microsomal fractions were prepared, placed into microcentrifuge tubes, and stored at −80 °C for up to 2 months. Finally, the Lowry method was used to determine the protein concentration of the microsomal fraction.
Liver cytosol has been used as a source of biliverdin reductase. Rat liver was perfused through the hepatic portal vein with cold 0.9% NaCl, then it was cut and flushed with 2 × 20 mL of ice-cold PBS to remove all of the blood. Liver tissue was homogenized in three volumes of a solution containing 1.15% KCl w/v and Tris buffer 20 mM, pH 7.8 on ice. Homogenates were centrifuged at 10,000× g for 20 min at 4 °C. The supernatant was decanted and centrifuged at 100,000× g for 1 h at 4 °C to sediment the microsomes. The 100,000× g supernatant was saved and then stored in small amounts at −80 °C after its protein concentration was measured.
The measurement of bilirubin formation, using the difference in absorbance at 464–530 nm, was used to determine the HO-1 and HO-2 activities, as previously described by Ryter et al.. Reaction mixtures (500 μL) consisted of 20 mM Tris–HCl, pH 7.4, (1 mg/mL) microsomal extract, 0.5–2 mg/mL biliverdin reductase, 1 mM NADPH, 2 mM glucose 6-phosphate (G6P), 1 U G6P dehydrogenase, 25 μM hemin, and 10 μL of DMSO (or the same volume of DMSO solution of test or reference compounds to a final concentration of 100, 10, and 1 μM). Incubations were carried out for 60 min at 37 °C in a circulating water bath in the dark. One volume of chloroform was added to stop the reactions. Then, the chloroform phase was recovered, and the amount of bilirubin, which was formed has been measured with a double-beam spectrophotometer as OD464–530 nm (extinction coefficient, 40 mM/cm^−1 for bilirubin). […]

[4] = system: MDA-MB-231 cells; assay: Sulforhodamine B (SRB) cytotoxicity assay, MDA-MB-231; type: cell-based; conditions: hormone-resistant breast cancer cells, 10–100 μM, 48 h
Procedure: (§2) Both cell lines were treated with 10–100 μM of compound 5a for 48 h. Cell survival at different concentrations was calculated compared to untreated controls. At the end of treatment, cell number was determined using the sulforhodamine B (SRB) colorimetric assay based on the measurement of cellular protein content.
(§3) MCF-7 and MDA-MB-231 cells were maintained in complete growth media (DMEM/Ham’s F12 supplemented with 10% fetal bovine serum, 2 mM L-glutamine, 100 units/mL penicillin, 100 units/mL of streptomycin, and 2.2 g/L of NaHCO3) at 37 °C in a humidified atmosphere of 5% CO2. For all procedures, cells were harvested using TrypLE Express (Life Technologies, Auckland, New Zealand).
(§4) Cells were seeded into 96-well plates and incubated for 24 h to test the cytotoxic effect of the HO inhibitor. After 24 h incubation, different concentrations of the HO inhibitor were administered for 48 h. Following the incubation, cells were fixed using 10% trichloro-acetic acid (TCA). The cytotoxicity was determined using the sulforhodamine B assay was used, as previously described, to determine the cytotoxicity of the HO-1 inhibitor. IC50 (the concentration required to decrease the cell number by 50%) was determined by non-linear regression using Graphpad prism 6 software. Treatments were performed in triplicate, and data represent the mean of three independent experiments.

[5] = biological target: T2, HO-2; assay: HO-2 inhibition, bilirubin formation in rat brain microsomal fraction; type: biochemical; conditions: mean ± SD of three determinations
Procedure: as §1
The dominance of HO-1 protein in the rat spleen and of HO-2 in the rat brain has been well documented; thus, the microsomal fraction, prepared by differential centrifugation, from rat spleen and brain have been used to obtain HO-1 and HO-2. These particular microsomal preparations were selected in order to use the most native (i.e., closest to in vivo) forms of HO-1 and HO-2. Spleen and brain microsomal fractions, from Sprague–Dawley rats, were prepared following a published procedure. All experiments complied with current Italian law and met the guidelines of the Institutional Animal Care and Use Committee of MINISTRY OF HEALTH (Directorate General for Animal Health and Veterinary Medicines, Italy). Male Sprague–Dawley albino rats (150 g body weight and age 45 d) were used. Rats had free access to water, and they were maintained at room temperature with a natural photoperiod (12 h:12 h light–dark cycle). For measuring HO-1 and HO-2 activities, each rat was sacrificed and their spleen and brain were excised and weighed. […]
Liver cytosol has been used as a source of biliverdin reductase. […] The 100,000× g supernatant was saved and then stored in small amounts at −80 °C after its protein concentration was measured.
The measurement of bilirubin formation, using the difference in absorbance at 464–530 nm, was used to determine the HO-1 and HO-2 activities, as previously described by Ryter et al.. […] Then, the chloroform phase was recovered, and the amount of bilirubin, which was formed has been measured with a double-beam spectrophotometer as OD464–530 nm (extinction coefficient, 40 mM/cm^−1 for bilirubin). […]

[6] = system: MCF-7 cells; assay: Sulforhodamine B (SRB) cytotoxicity assay, MCF-7; type: cell-based; conditions: Homo sapiens, MCF7, hormone-sensitive breast cancer cells, 10–100 μM, 48 h, mean ± SEM (n = 3), read-out: IC50 cytotoxicity against MCF-7
Procedure: as §2, §3, §4

[7] = experimental values repeated in the docking table, read-out: IC50 exp. (μM) HO-1
[8] = rat spleen microsomal fraction, mean ± SD of three determinations, read-out: IC50 (μM) ± SD HO-1

## OC(Cn1ccnc1)c1cccc(-c2ccccc2)c1 (centres unmarked) [B]
[1]
  IC50: 0.95 µM
[2]
  IC50: > 100 µM

## OC(Cn1ccnc1)c1ccc(OCc2ccc(Br)cc2)cc1 (centres unmarked) [C]
[2]
  IC50: > 100 µM

## Brc1cccc(CCn2ccnc2)c1 [Compound 2a, 1-(3-bromophenethyl)-1H-imidazole]
[3]; [7]
  IC50: 100 µM
[3]; [8]
  IC50: 100 ± 5.6 µM

## Brc1ccc(COc2ccc(CCn3ccnc3)cc2)cc1 [Compound 2b, 1-(4-((4-bromobenzyl)oxy)phenethyl)-1H-imidazole]
[3]; [7]
  IC50: 62.9 ± 3.2 µM
[3]; [8]
  IC50: 62.9 ± 3.2 µM
other
  melting point: 147.5 to 149.7 °C

## c1ccc(-c2cccc(CCn3ccnc3)c2)cc1 [Compound 2c, 1-(2-((1,1’-biphenyl)-3-yl)ethyl)-1H-imidazole]
[3]; [7]
  IC50: 46.8 ± 1.8 µM
[3]; [8]
  IC50: 46.8 ± 1.8 µM

## O=C(Cn1ccnc1)c1cccc(Br)c1 [Compound 4g]
[3]; [8]
  IC50: 38.2 ± 1.8 µM

## O=C(Cn1ccnc1)c1cccc(-c2ccccc2)c1 [Compound 4h]
[3]; [8]
  IC50: 19.9 ± 2.5 µM

## O=C(Cn1ccnc1)c1ccc(OCc2ccc(Br)cc2)cc1 [Compound 4i]
[3]; [8]
  IC50: 55.46 ± 0.05 µM

## OC(Cn1ccnc1)c1cccc(OCc2ccc(Br)cc2)c1 (centres unmarked) [Compound 5a, 1-[3-[(4-bromobenzyl)oxy]phenyl]-2-(1H-imidazol-1-yl)ethanol]
[4]
  cytotoxicity against MDA-MB-231: no cytotoxicity
[3]; [7]
  IC50: 0.9 ± 0.02 µM
[3]; [8]
  IC50: 0.9 ± 0.02 µM
other
  melting point: 123 to 126 °C
[5]
  IC50: 54 µM and 53.6 µM
[6]
  IC50: 47.4 ± 6.8 µM

## OC(Cn1ccnc1)c1ccccc1OCc1ccc(Br)cc1 (centres unmarked) [Compound 5b, 1-[2-[(4-bromobenzyl)oxy]phenyl]-2-(1H-imidazol-1-yl)ethanol]
[3]; [7]
  IC50: > 100 µM
[3]; [8]
  IC50: ≥ 100 µM
other
  melting point: 121.5 to 130 °C

## OC(Cn1ccnc1)c1ccc(OCc2cccc(Br)c2)cc1 (centres unmarked) [Compound 5c, 1-[4-[(3-bromobenzyl)oxy]phenyl]-2-(1H-imidazol-1-yl)ethanol]
[3]; [7]
  IC50: 41 ± 1.5 µM
[3]; [8]
  IC50: 41 ± 1.5 µM
other
  melting point: 120.1 to 123 °C

## OC(Cn1ccnc1)c1ccc(OCc2ccccc2Br)cc1 (centres unmarked) [Compound 5d, 1-[4-[(2-bromobenzyl)oxy]phenyl]-2-(1H-imidazol-1-yl)ethanol]
[3]; [7]
  IC50: 9 ± 2.2 µM
[3]; [8]
  IC50: 9 ± 2.2 µM
other
  melting point: 120 to 126 °C
[5]
  IC50: 15.8 ± 1.6 µM

## OC(Cn1ccnc1)c1cccc(OCc2cccc(Br)c2)c1 (centres unmarked) [Compound 5e, 1-[3-[(3-bromobenzyl)oxy]phenyl]-2-(1H-imidazol-1-yl)ethanol]
[3]; [7]
  IC50: 46 ± 1.9 µM
[3]; [8]
  IC50: 46 ± 1.9 µM
other
  melting point: 93.5 to 99.4 °C

## OC(Cn1ccnc1)c1cccc(OCc2ccccc2Br)c1 (centres unmarked) [Compound 5f, 1-[3-[(2-bromobenzyl)oxy]phenyl]-2-(1H-imidazol-1-yl)ethanol]
[3]; [7]
  IC50: 44 ± 1.8 µM
[3]; [8]
  IC50: 44 ± 1.8 µM
other
  melting point: 132 to 140 °C

## Clc1ccc(COC(Cn2ccnc2)c2cccc(Br)c2)cc1 (centres unmarked) [Compound 6a, 1-(2-(3-bromophenyl)-2-((4-chlorobenzyl)oxy)ethyl)-1H-imidazole]
[3]; [7]
  IC50: > 100 µM
[3]; [8]
  IC50: > 100 µM

## Clc1ccc(Cl)c(COC(Cn2ccnc2)c2cccc(Br)c2)c1 (centres unmarked) [Compound 6b, 1-(2-(3-bromophenyl)-2-((2,5-dichlorobenzyl)oxy)ethyl)-1H-imidazole]
[3]; [7]
  IC50: 66 ± 3.2 µM
[3]; [8]
  IC50: 66 ± 3.2 µM

## C=Cc1c2[n-]c(c1C)/C=c1\[n-]/c(c(C)c1C=C)=C\c1[n-]c(c(CCC(=O)O)c1C)/C=c1\[n-]c(c(C)c1CCC(=O)O)=C2.[Sn+4] [SnPP, tin protoporphyrin, reference compound]
[3]; [8]
  IC50: 0.58 ± 0.03 µM
[5]
  IC50: 0.36 ± 0.01 µM
